From ChEMBL document CHEMBL4373747 (ACS Med Chem Lett, 2020)

Tests used:
Histone deacetylase 3 = Histone deacetylase 3 (Homo sapiens, UniProt O15379); experiment: Inhibition of recombinant full length human HDAC3 expressed in baculovirus infected Sf9 cells using FAM-RHKK-Ac as substrate incubated for 3 hrs by electrophoretic mobility shift assay
[1] = target: T1, Protein deacetylase HDAC6 (Homo sapiens, UniProt Q9UBN7); experiment: Inhibition of recombinant full length human HDAC6 expressed in baculovirus infected Sf9 cells using FAM-RHKK-Ac as substrate incubated for 5 hrs by electrophoretic mobility shift assay
T1 sequence (Q9UBN7 whole entry): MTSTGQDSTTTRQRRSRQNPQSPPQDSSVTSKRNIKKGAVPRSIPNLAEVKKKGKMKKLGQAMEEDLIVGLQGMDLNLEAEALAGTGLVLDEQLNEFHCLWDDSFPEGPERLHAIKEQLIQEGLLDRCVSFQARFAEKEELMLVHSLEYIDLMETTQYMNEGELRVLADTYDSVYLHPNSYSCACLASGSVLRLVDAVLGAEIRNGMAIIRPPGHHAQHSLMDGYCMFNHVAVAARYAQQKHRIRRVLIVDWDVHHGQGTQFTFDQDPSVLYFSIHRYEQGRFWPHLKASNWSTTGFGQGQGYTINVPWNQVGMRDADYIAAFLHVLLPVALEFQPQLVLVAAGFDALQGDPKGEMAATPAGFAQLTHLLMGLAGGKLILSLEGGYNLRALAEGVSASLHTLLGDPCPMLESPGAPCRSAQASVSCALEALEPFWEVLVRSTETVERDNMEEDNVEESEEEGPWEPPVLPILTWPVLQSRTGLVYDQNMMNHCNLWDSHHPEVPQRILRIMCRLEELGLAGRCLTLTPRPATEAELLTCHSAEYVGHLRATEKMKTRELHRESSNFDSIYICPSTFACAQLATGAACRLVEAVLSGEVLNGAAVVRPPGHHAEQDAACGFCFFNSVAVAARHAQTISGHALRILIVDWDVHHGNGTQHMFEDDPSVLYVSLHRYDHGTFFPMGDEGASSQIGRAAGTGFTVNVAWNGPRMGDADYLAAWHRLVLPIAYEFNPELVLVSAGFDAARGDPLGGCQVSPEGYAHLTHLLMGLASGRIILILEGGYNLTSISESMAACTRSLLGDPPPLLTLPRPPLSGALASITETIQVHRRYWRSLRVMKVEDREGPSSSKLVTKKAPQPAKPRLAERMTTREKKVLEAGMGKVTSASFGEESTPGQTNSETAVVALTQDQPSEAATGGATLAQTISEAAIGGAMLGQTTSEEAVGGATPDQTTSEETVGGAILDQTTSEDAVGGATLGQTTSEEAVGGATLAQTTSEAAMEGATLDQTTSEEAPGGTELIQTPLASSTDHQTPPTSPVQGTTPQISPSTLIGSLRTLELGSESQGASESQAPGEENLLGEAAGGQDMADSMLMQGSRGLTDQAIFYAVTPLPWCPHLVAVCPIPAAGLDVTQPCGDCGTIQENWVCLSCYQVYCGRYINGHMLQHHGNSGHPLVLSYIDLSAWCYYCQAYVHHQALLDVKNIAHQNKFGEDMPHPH

Histone deacetylase 8 = target: T2, Histone deacetylase 8 (Homo sapiens, UniProt Q9BY41); experiment: Inhibition of recombinant full length human HDAC8 expressed in baculovirus infected Sf9 cells using FAM-RHKK-TFAc as substrate incubated for 3 hrs by electrophoretic mobility shift assay
T2 sequence (Q9BY41 whole entry): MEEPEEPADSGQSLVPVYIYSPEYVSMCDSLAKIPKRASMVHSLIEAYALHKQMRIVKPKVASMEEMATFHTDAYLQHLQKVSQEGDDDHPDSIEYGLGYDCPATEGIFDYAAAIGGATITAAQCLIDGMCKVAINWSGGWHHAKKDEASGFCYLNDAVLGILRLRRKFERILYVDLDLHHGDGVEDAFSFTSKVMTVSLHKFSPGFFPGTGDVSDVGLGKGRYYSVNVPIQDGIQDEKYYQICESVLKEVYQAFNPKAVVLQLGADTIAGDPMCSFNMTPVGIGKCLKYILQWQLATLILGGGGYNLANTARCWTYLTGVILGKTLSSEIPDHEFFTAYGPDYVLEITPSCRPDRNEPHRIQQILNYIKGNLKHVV

Histone deacetylase 11 = target: T3, Histone deacetylase 11 (Homo sapiens, UniProt Q96DB2); experiment: Inhibition of recombinant full length human HDAC11 expressed in baculovirus infected Sf9 cells using FAM-RHKK-TFAc as substrate incubated for 17 hrs by electrophoretic mobility shift assay
T3 sequence (Q96DB2 whole entry): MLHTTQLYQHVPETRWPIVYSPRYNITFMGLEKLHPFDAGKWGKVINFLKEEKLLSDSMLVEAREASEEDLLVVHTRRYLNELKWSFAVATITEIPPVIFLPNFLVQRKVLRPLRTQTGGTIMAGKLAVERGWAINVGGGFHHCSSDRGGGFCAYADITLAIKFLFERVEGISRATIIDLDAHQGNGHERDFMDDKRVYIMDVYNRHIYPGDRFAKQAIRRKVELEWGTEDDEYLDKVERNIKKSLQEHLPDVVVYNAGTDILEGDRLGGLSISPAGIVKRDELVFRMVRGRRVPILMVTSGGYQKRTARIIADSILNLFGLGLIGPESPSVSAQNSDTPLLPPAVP

[2] = target: T1, Protein deacetylase HDAC6; experiment: Inhibition of recombinant full length human HDAC6 expressed in baculovirus infected Sf9 cells assessed as inhibitory constant using FAM-RHKK-Ac as substrate incubated for 5 hrs by electrophoretic mobility shift assay
MV4-11 = experiment: Cytotoxicity against human MV4-11 cells assessed as reduction in cell viability incubated for 72 hrs by cell-titer blue assay; type: functional, cell-based; settings: MV4-11, 72 h
MOLM-13 = experiment: Cytotoxicity against human MOLM13 cells assessed as reduction in cell viability incubated for 72 hrs by cell-titer blue assay; type: functional, cell-based; settings: MOLM-13, 72 h
MDA-MB-231 = experiment: Cytotoxicity against human MDA-MB-231 cells assessed as reduction in cell viability incubated for 72 hrs by cell-titer blue assay; type: functional, cell-based; settings: MDA-MB-231, 72 h
MDA-MB-468 = experiment: Cytotoxicity against human MDA-MB-468 cells assessed as reduction in cell viability incubated for 72 hrs by cell-titer blue assay; type: functional, cell-based; settings: MDA-MB-468, 72 h
[3] = Cytotoxicity against human MRC9 cells assessed as reduction in cell viability incubated for 72 hrs by cell-titer blue assay; type: cell-based; settings: MRC9, 72 h
[4] = Intrinsic clearance in ICR/CD1 mouse hepatocytes at 1 uM measured upto 120 mins by LCMS analysis; type: ADME, cell-based, Hepatocyte; settings: 2 h
[5] = Protein binding in CD-1 mouse plasma at 1 uM incubated for 6 hrs by LCMS analysis; type: ADME, cell-free; settings: mouse, 6 h, 1 µM
[6] = Stability in CD-1 mouse hepatocytes assessed as compound remaining at 1 uM measured up to 6 hrs by LCMS analysis; type: ADME, cell-based, Hepatocyte; settings: CD-1, mouse, read-out: Stability
[7] = Apparent permeability from apical to basolateral side in human Caco2 cells incubated for 2 hrs by LC/MS analysis; type: ADME, cell-based, Caco-2; settings: caco-2, 2 h
[8] = Efflux ratio of apparent permeability in human Caco2 cells incubated for 2 hrs by LC/MS analysis; type: ADME, cell-based, Caco-2

Histone deacetylase 3, sequence (O15379 whole entry): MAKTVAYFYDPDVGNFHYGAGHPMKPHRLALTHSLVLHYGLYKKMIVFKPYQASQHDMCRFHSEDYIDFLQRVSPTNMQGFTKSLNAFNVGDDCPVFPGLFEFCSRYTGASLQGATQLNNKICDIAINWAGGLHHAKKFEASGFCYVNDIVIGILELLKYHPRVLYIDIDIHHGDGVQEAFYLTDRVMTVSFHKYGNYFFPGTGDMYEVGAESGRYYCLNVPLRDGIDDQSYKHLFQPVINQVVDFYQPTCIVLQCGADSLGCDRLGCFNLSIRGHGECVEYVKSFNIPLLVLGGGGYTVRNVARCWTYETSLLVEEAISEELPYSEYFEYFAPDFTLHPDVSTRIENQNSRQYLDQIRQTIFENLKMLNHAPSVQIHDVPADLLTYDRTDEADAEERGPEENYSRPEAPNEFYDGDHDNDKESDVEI

SMILES	IC50 (Histone deacetylase 3) [nM]	IC50 [1] [nM]	IC50 (Histone deacetylase 8) [nM]	IC50 (Histone deacetylase 11) [nM]	Ki [2] [nM]	CLH [4] [µL/min]	PPB [5] [%]	remaining at 6 h, 1 µM [6] [%]	Papp [7] [×10⁻⁶ cm/s]	Ratio ([8]; caco-2, 2 h)	efflux ratio at 2 h ([8]; Caco-2)	IC50 (MV4-11) [nM]	IC50 (MOLM-13) [nM]	IC50 (MDA-MB-231) [nM]	IC50 (MDA-MB-468) [nM]	IC50 [3] [nM]
CC(C)(C)c1ccc(CN(C(=O)CN(Cc2c(F)c(F)c(F)c(F)c2F)S(=O)(=O)c2ccc(F)cc2)c2ccc(C(=O)NO)cc2)cc1			> 1000		3600	36	99.6	20	0.27	3.83		1880	2100	2620	4210	19200
CC(C)(C)c1ccc(CNc2ccc(C(=O)NO)cc2)cc1	503	110	> 1000	> 1000	451							3490	9470	> 25000	> 25000	16100
CN(CC(=O)N(Cc1ccc(C(C)(C)C)cc1)c1ccc(C(=O)NO)cc1)S(=O)(=O)c1ccc(F)cc1	492	55.2	37.9	697	768							3410	5460	> 25000	> 12500	11800

Now from value to molecule, other results behind:

IC50 (Histone deacetylase 3) [nM]	IC50 [1] [nM]	IC50 (Histone deacetylase 8) [nM]	IC50 (Histone deacetylase 11) [nM]	Ki [2] [nM]	CLH [4] [µL/min]	PPB [5] [%]	remaining at 6 h, 1 µM [6] [%]	Papp [7] [×10⁻⁶ cm/s]	Ratio ([8]; caco-2, 2 h)	efflux ratio at 2 h ([8]; Caco-2)	SMILES	IC50 (MV4-11) [nM]	IC50 (MOLM-13) [nM]	IC50 (MDA-MB-231) [nM]	IC50 (MDA-MB-468) [nM]	IC50 [3] [nM]
708	117	573	> 1000	793							CN(C(=O)CN(C)S(=O)(=O)c1ccc(F)cc1)c1ccc(C(=O)NO)cc1	14600	24800			
132	1.49	90.6	51.9	1860							O=C(NO)c1ccc(N(Cc2ccccc2)C(=O)CN(Cc2c(F)c(F)c(F)c(F)c2F)S(=O)(=O)c2ccc(F)cc2)cc1	5800	8050			
										73	C[C@H]1O[C@@H](O[C@H]2[C@@H](O)C[C@H](O[C@H]3[C@@H](O)C[C@H](O[C@H]4CC[C@@]5(C)[C@H](CC[C@@H]6[C@@H]5C[C@@H](O)[C@]5(C)[C@@H](C7=CC(=O)OC7)CC[C@]65O)C4)O[C@@H]3C)O[C@@H]2C)C[C@H](O)[C@@H]1O [DIGOXIN]					
